From patent US20250295646A1, “METHODS OF USE OF T-TYPE CALCIUM CHANNEL MODULATORS” (Praxis Precision Medicines, Inc., priority 2022, published 2025)

Test: Within-participant escalating dose trial Part A: safety and tolerability
Type: in vivo, human
Details: N = 8
Protocol: In Part A, an open label trial was conducted.

Compound: CC(C)(C)NC(=O)CN1CCC(CNC(=O)c2cc(F)cc(Cl)c2)CC1 [compound of formula (I), N-((1-(2-(tert-butylamino)-2-oxoethyl)piperidin-4-yl)methyl)-3-chloro-5-fluorobenzamide]
- Dry eye (5 mg): 1 (12.5%) n (%)
- Eye disorders (5 mg): 2 (25.0%) n (%)
- General Disorders and Administration Site Conditions (5 mg): 3 (37.5%) n (%)
- Headache (5 mg): 2 (25.0%) n (%)
- Lethargy (5 mg): 1 (12.5%) n (%)
- Medical device site dermatitis (5 mg): 1 (12.5%) n (%)
- Nervous System Disorders (5 mg): 2 (25.0%) n (%)
- Participants with at least one TEAE (5 mg): 5 (62.5%) n (%)
- Vessel puncture site thrombosis (5 mg): 1 (12.5%) n (%)
- Dry eye (10 mg): 2 (25.0%) n (%)
- Eye disorders (10 mg): 2 (25.0%) n (%)
- General Disorders and Administration Site Conditions (10 mg): 3 (37.5%) n (%)
- Headache (10 mg): 0 n (%)
- Lethargy (10 mg): 0 n (%)
- Medical device site dermatitis (10 mg): 2 (25.0%) n (%)
- Nervous System Disorders (10 mg): 0 n (%)
- Participants with at least one TEAE (10 mg): 5 (62.5%) n (%)
- Vessel puncture site thrombosis (10 mg): 1 (12.5%) n (%)
- Dry eye (20 mg): 0 n (%)
- Eye disorders (20 mg): 0 n (%)
- General Disorders and Administration Site Conditions (20 mg): 1 (12.5%) n (%)
- Headache (20 mg): 1 (12.5%) n (%)
- Medical device site dermatitis (20 mg): 0 n (%)
- Nervous System Disorders (20 mg): 1 (12.5%) n (%)
- Participants with at least one TEAE (20 mg): 3 (37.5%) n (%)
- Vessel puncture site thrombosis (20 mg): 0 n (%)
- Dry eye (Overall 5-20 mg): 3 (37.5%) n (%)
- Eye disorders (Overall 5-20 mg): 3 (37.5%) n (%)
- Headache (Overall 5-20 mg): 3 (37.5%) n (%)
- Lethargy (Overall 5-20 mg): 2 (25.0%) n (%)
- Medical device site dermatitis (Overall 5-20 mg): 3 (37.5%) n (%)
- Nervous System Disorders (Overall 5-20 mg): 3 (37.5%) n (%)
- Participants with at least one TEAE (Overall 5-20 mg): 7 (87.5%) n (%)
- Vessel puncture site thrombosis (Overall 5-20 mg): 2 (25.0%) n (%)
